Experimental data as given in ChEMBL document CHEMBL1201862, “PubChem BioAssay data set” (2004).
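48-hour exposure; five concentrations; linearly interpolated endpoints. At the GI50, growth is halved.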 Calls of active or inactive are those of the source. Rule as the data show it: active = GI50 up to about 1.1 µM and inactive = higher.

Tests used:
Experiment in all cases: DTP human tumour cell line panel, 48 h
LXFL 529 = system: LXFL 529
XF498 = system: XF498
KM-20L2 = system: KM-20L2
SNB-78 = system: SNB-78
HOP-18 = system: HOP-18
M19-MEL = system: M19-MEL
DLD-1 = system: DLD-1
DMS-273 = system: DMS-273
RXF 631 = system: RXF 631

SMILES | GI50 (LXFL 529) | GI50 (XF498) | GI50 (KM-20L2) | GI50 (SNB-78) | GI50 (HOP-18) | GI50 (M19-MEL) | GI50 (DLD-1) | GI50 (DMS-273) | GI50 (RXF 631)
Cc1ccc(S(=O)OC2C3CC4CC(C3)CC2C4)cc1 (stereo unspecified) | > 100 µM (inactive) | > 100 µM (inactive) | > 100 µM (inactive) | > 100 µM (inactive) | > 100 µM (inactive) | > 100 µM (inactive) | > 100 µM (inactive) | > 100 µM (inactive) | –
CCCCN(CCCC)CC(C(=O)Nc1ccc([N+](=O)[O-])cc1[N+](=O)[O-])/C(C)=N\NC(=O)c1ccncc1 (stereo unspecified) | > 100 µM (inactive) | > 100 µM (inactive) | > 100 µM (inactive) | > 100 µM (inactive) | – | > 100 µM (inactive) | > 100 µM (inactive) | > 100 µM (inactive) | > 100 µM (inactive)
Cc1cccc(C)c1NC(=O)/C(Cl)=C(/Cl)C(=O)O | 8.11 µM (inactive) | 15 µM (inactive) | 6.92 µM (inactive) | 28.2 µM (inactive) | 20.3 µM (inactive) | 19.9 µM (inactive) | 7.28 µM (inactive) | 18.6 µM (inactive) | –
CN(C(=O)c1ccc(Cl)cc1)C(=S)N1CCN(c2ccccn2)CC1 | > 100 µM (inactive) | – | > 100 µM (inactive) | > 100 µM (inactive) | > 100 µM (inactive) | > 100 µM (inactive) | > 100 µM (inactive) | > 100 µM (inactive) | –
C=C1C(=O)OC2CC3(C)C=CC(=O)C(=C)C3CC12 (stereo unspecified) | 0.664 µM (active) | 1.72 µM (inactive) | 2.28 µM (inactive) | 2.43 µM (inactive) | 3.06 µM (inactive) | 1.69 µM (inactive) | 0.329 µM (active) | 1.22 µM (inactive) | –
CN(C)c1ccc(C(=C(c2ccc(N(C)C)cc2)c2ccc(N(C)C)cc2)c2ccc(N(C)C)cc2)cc1 | 12.3 µM (inactive) | – | 16.9 µM (inactive) | 82.2 µM (inactive) | 7.01 µM (inactive) | 26.5 µM (inactive) | 16.1 µM (inactive) | 15.8 µM (inactive) | 13.6 µM (inactive)
CC(C)(C)C(C#N)(C#N)c1ccc(C(C#N)(C#N)C(C)(C)C)nn1 | > 100 µM (inactive) | 38.6 µM (inactive) | > 100 µM (inactive) | 74.8 µM (inactive) | – | > 100 µM (inactive) | > 100 µM (inactive) | > 100 µM (inactive) | > 100 µM (inactive)
COc1ccc(CNc2nc3c(NC(C)=O)cc(C(F)(F)F)cc3nc2-c2ccccc2)cc1OC | 16.4 µM (inactive) | 78 µM (inactive) | > 100 µM (inactive) | 10.7 µM (inactive) | – | > 100 µM (inactive) | > 100 µM (inactive) | 21.9 µM (inactive) | –
O=C(O)Cc1cccc2c(=O)cc(-c3ccccc3)oc12 [MITOFLAXONE] | – | 33.7 µM (inactive) | > 250 µM (inactive) | > 250 µM (inactive) | 156 µM (inactive) | > 250 µM (inactive) | > 250 µM (inactive) | > 250 µM (inactive) | –
Cc1cc2c(c3oc(C4(C)OC4C4OC4C)cc(=O)c13)C(=O)c1c(O)c(C3CC(C)(N(C)C)C(O)C(C)O3)cc(C3CC(N(C)C)C(O)C(C)O3)c1C2=O (stereo unspecified) | 0.000227 µM (active) | – | – | 0.0025 µM (active) | 0.00069 µM (active) | – | 0.0025 µM (active) | 0.0025 µM (active) | 0.000161 µM (active)
Clc1ccc2ns[s+]c2c1 | 0.166 µM (active) | > 100 µM (inactive) | 0.317 µM (active) | > 100 µM (inactive) | 11.7 µM (inactive) | 1.97 µM (inactive) | 0.625 µM (active) | 0.815 µM (active) | –
Cc1cccc(C(C)(C)C)c1NC(=O)C(C#N)C1=C(Cl)C(=O)c2ccccc2C1=O (stereo unspecified) | 15.5 µM (inactive) | 16 µM (inactive) | 20.5 µM (inactive) | 14.4 µM (inactive) | 12 µM (inactive) | – | 14.4 µM (inactive) | 17.8 µM (inactive) | –
COC(=O)C1=Cc2c(cc(OC)c(OC)c2OC)[C@H](c2ccc(OC)c(OC)c2OC)C1C(=O)OC (stereo partly specified) | > 100 µM (inactive) | – | > 100 µM (inactive) | 40.8 µM (inactive) | – | > 100 µM (inactive) | > 100 µM (inactive) | 29.5 µM (inactive) | 71.8 µM (inactive)
COc1ccccc1NC(=O)CC(=O)N/N=C/c1ccc(N(CCC#N)S(=O)(=O)c2ccccc2)cc1 | > 100 µM (inactive) | > 100 µM (inactive) | > 100 µM (inactive) | > 100 µM (inactive) | > 100 µM (inactive) | > 100 µM (inactive) | > 100 µM (inactive) | – | –
C[n+]1c2n(c3nc(N)[nH]c(=O)c31)C1OC(C2)C(O)C1O (stereo unspecified) | > 100 µM (inactive) | > 100 µM (inactive) | > 100 µM (inactive) | > 100 µM (inactive) | > 100 µM (inactive) | > 100 µM (inactive) | > 100 µM (inactive) | > 100 µM (inactive) | > 100 µM (inactive)
C=CC(=O)N1C/C(=C\c2ccc(Cl)c(Cl)c2)C(=O)/C(=C/c2ccc(Cl)c(Cl)c2)C1 | 0.127 µM (active) | – | 0.216 µM (active) | 0.261 µM (active) | 0.362 µM (active) | 0.184 µM (active) | 0.0374 µM (active) | 0.155 µM (active) | 0.449 µM (active)
NC(=O)NO [HYDROXYUREA] | 713 µM (inactive) | 820 µM (inactive) | 436 µM (inactive) | 2160 µM (inactive) | 933 µM (inactive) | 1420 µM (inactive) | 1450 µM (inactive) | 137 µM (inactive) | –
Cn1c2ccccc2c2cc(-c3ccccc3)c3c(c21)C(=O)c1ccccc1C3=O | 14.3 µM (inactive) | 14.6 µM (inactive) | – | 15.1 µM (inactive) | – | 2.25 µM (inactive) | 13.3 µM (inactive) | 17 µM (inactive) | 34 µM (inactive)
CN(C)c1ccc(C(=C2C=CC(=[N+](C)C)C=C2)c2ccc(N(C)C)cc2)cc1 [GENTIAN VIOLET] | 0.0579 µM (active) | 0.0363 µM (active) | 0.206 µM (active) | 0.637 µM (active) | – | 0.173 µM (active) | 0.0673 µM (active) | 0.22 µM (active) | 0.185 µM (active)
COc1cccc(/C(C=O)=C(\Cl)c2ccc(OC)c(OC)c2)c1 | 11.6 µM (inactive) | 17.3 µM (inactive) | 19.7 µM (inactive) | 13 µM (inactive) | 13.6 µM (inactive) | 11.3 µM (inactive) | 12.9 µM (inactive) | 14 µM (inactive) | –
COc1ccc2c(c1OC)C(=O)c1cnccc1C2=O | > 100 µM (inactive) | > 100 µM (inactive) | > 100 µM (inactive) | > 100 µM (inactive) | > 100 µM (inactive) | > 100 µM (inactive) | > 100 µM (inactive) | > 100 µM (inactive) | > 100 µM (inactive)
CCOP(=O)(OCC)C(C(=O)OC)C(=O)C(=O)Nc1cccc([N+](=O)[O-])c1 (stereo unspecified) | > 100 µM (inactive) | > 100 µM (inactive) | > 100 µM (inactive) | > 100 µM (inactive) | > 100 µM (inactive) | > 100 µM (inactive) | > 100 µM (inactive) | > 100 µM (inactive) | > 100 µM (inactive)
Cc1c(Cl)ccc2c1NC(=O)C2(O)CC(=O)c1ccc2ccccc2c1 (stereo unspecified) | – | > 100 µM (inactive) | 69 µM (inactive) | – | > 100 µM (inactive) | – | 79.8 µM (inactive) | – | 57.1 µM (inactive)
CC1(C)OCN(c2ccc(S(N)(=O)=O)cc2)Cn2c1nc1ccccc12 | > 100 µM (inactive) | > 100 µM (inactive) | > 100 µM (inactive) | > 100 µM (inactive) | > 100 µM (inactive) | > 100 µM (inactive) | > 100 µM (inactive) | > 100 µM (inactive) | –
CC1OC(OC2C[C@](O)(C(=O)CF)Cc3c(O)c4c(c(O)c32)C(=O)c2ccccc2C4=O)CC(N)C1O (stereo partly specified) | 0.0596 µM (active) | < 0.0164 µM (active) | 0.0574 µM (active) | 0.241 µM (active) | – | 0.0178 µM (active) | 0.0484 µM (active) | < 0.01 µM (active) | –
Cc1ccc(/C=C/C(=O)c2sc(C(N)=S)nc2C)cc1 | – | – | > 100 µM (inactive) | > 100 µM (inactive) | > 100 µM (inactive) | > 100 µM (inactive) | > 100 µM (inactive) | > 100 µM (inactive) | –
CN/N=C(\C(=O)Nc1ccc([N+](=O)[O-])cc1[N+](=O)[O-])C1NC(=O)NC1=O (stereo unspecified) | > 100 µM (inactive) | – | > 100 µM (inactive) | > 100 µM (inactive) | > 100 µM (inactive) | > 100 µM (inactive) | > 100 µM (inactive) | 32.2 µM (inactive) | –
C=CC/C=C/Cc1csc(C(C)(C)C(O)C/C=C/C(=C)CCNC(=O)OC)n1 (stereo unspecified) | 21.2 µM (inactive) | > 50 µM (inactive) | 51.2 µM (inactive) | – | – | 25.5 µM (inactive) | 83.4 µM (inactive) | 3.26 µM (inactive) | –
COC(=O)C1C(/C=C/c2ccoc2)ON2CCC[C@@H]12 (stereo partly specified) | > 100 µM (inactive) | – | > 100 µM (inactive) | > 100 µM (inactive) | 70.3 µM (inactive) | > 100 µM (inactive) | > 100 µM (inactive) | 36.2 µM (inactive) | –
